What was measured:
IRE1a [1] = target: T1, IRE1a (Homo sapiens, UniProt O75460); test: In vitro FRET assay (IRE1a cleavage of XBP1 RNA probe); type: biochemical; design: purchased SignalChem; settings: IRE1a 2 nM, tested as the salt named
Protocol: Selected compounds were serially diluted with DMSO in a non-binding black 384-well plate for a total of 15 ul in each well. 2 ul of the serially diluted compound or DMSO control were then added to new wells containing 98 ul of 1×CAB, for a total volume of 100 ul, 10 ul of which were then transferred to wells of a new plate. 5 ul of the diluted IRE1a was then added to each well. 5 ul of a […] XBP1 RNA probe was then added to each well.
Each probe contained a 5′ 6-FAM modification and a 3′ IOWA Black FQ modification.
A second FRET assay was performed to assess ATP-mediated inhibition. In this case, compounds and IRE1a were prepared and combined as discussed above, with the addition of ATP up to 1 mM final concentration. This mixture was incubated at room temperature for 60 minutes and then 5 ul of 400 nM XBP1 wildtype or mutant RNA probe was added.

IRE1a [2] = target: T1, IRE1a; test: IRE1a Endoribonuclease Nanoluciferase Assay (XBP1 luciferase reporter in 293T cells); type: cell-based; design: endogenous in cells; host or cells: 293T; settings: XBP1 nanoluciferase reporter in 293T cells, ER stressor; tested as the salt named
293T cells = test: Growth assay (cytotoxicity); type: cell-based, human; settings: 2 day incubation
Protocol: A growth assay was performed to evaluate the compounds disclosed herein for cytotoxicity. […] 133.3 uL cDMEM was added to wells 1, 2, 3, 5, 6, and 7 in rows A, C, E and G of the dilution plate. Compounds were serially diluted leftwards in threefold dilutions (66.7 uL into 133.3 uL cDMEM). 20 μL of each dilution was transferred in duplicate (duplicates in vertical paired wells) to the cells plated in the 96-well plate shown in Table 5, to the total concentrations shown below. 200 uL cDMEM was added to media wells (wells G5-H8). The plate was then placed in a humidified chamber for a 2 day incubation, and then photographed (media was more yellow in wells with potent cell growth).

[3] = tested on: IRE1a-mediated XBP1 splicing; test: Assay for target engagement in pancreas and salivary gland (RT-qPCR of XBP1 splicing); type: in vivo; settings: mice, 30 mg/kg oral gavage, 6 hours, compared to control and Compound B
Protocol: Mice (n=3 per group) were orally gavaged with 30 mg/kg vehicle control or IRE1 inhibitors dissolved in H2O. After 6 hours, mice were euthanized and pancreas and salivary gland tissues were isolated, snap frozen on dry ice, and used for subsequent RT-qPCR analysis of beta-actin, XBP1s and total XBP1. Gene expression was evaluated by quantitative PCR for XBP1s and total XBP1 transcripts using the 2^(−ΔCT) method for calculating normalized gene expression. Gene expression levels were normalized to Actb transcripts. XBP1 splicing is calculated as XBP1s expression divided by total XBP1 expression.

[4] = Metabolic assays of N,N-dimethyl compounds; type: in vitro ADME; settings: data not shown
[5] = Bioavailability assay (mouse pharmacokinetic study); type: in vivo; settings: IV 1 mg/kg, PO 30 mg/kg (Compound A PO 10 mg/kg)
IRE1a/XBP1 pathway = test: Assay for inhibition of endogenous XBP1 splicing in 293T cells with tunicamycin; type: cell-based, human; settings: XBP1 splicing by qPCR
Protocol: Gene expression was evaluated by quantitative PCR for XBP1s and total XBP1 transcripts using the 2^(−ΔCT) method for calculating normalized gene expression. Gene expression levels were normalized to ACTB transcripts. XBP1 splicing was calculated as actin-normalized XBP1s expression divided by actin-normalized total XBP1 expression.

IRE1a [6] = target: T1, IRE1a; test: IRE1a phosphorylation inhibition assay (immunoblot, tunicamycin-treated 293T cells); type: cell-based; design: endogenous in cells; host or cells: 293T; settings: human 293T cells
Protocol: Inhibition of ER stress-induced IRE1a phosphorylation and XBP1s protein accumulation in human 293T cells was assessed. Immunoblot analysis was performed in human 293T cells lysates obtained from cells after exposure to the chemical ER stress-inducing agent tunicamycin, and optional treatment with Compound C. Lysates were probed with antibodies recognizing IRE1a, phosphorylated IRE1a, XBP1, or TATA-binding protein (TBP). TBP was blotted as a protein loading control. […] 20 nM was sufficient to reduce XBP1s protein levels below the limit of detection in this assay.

T1 sequence (O75460 19-977): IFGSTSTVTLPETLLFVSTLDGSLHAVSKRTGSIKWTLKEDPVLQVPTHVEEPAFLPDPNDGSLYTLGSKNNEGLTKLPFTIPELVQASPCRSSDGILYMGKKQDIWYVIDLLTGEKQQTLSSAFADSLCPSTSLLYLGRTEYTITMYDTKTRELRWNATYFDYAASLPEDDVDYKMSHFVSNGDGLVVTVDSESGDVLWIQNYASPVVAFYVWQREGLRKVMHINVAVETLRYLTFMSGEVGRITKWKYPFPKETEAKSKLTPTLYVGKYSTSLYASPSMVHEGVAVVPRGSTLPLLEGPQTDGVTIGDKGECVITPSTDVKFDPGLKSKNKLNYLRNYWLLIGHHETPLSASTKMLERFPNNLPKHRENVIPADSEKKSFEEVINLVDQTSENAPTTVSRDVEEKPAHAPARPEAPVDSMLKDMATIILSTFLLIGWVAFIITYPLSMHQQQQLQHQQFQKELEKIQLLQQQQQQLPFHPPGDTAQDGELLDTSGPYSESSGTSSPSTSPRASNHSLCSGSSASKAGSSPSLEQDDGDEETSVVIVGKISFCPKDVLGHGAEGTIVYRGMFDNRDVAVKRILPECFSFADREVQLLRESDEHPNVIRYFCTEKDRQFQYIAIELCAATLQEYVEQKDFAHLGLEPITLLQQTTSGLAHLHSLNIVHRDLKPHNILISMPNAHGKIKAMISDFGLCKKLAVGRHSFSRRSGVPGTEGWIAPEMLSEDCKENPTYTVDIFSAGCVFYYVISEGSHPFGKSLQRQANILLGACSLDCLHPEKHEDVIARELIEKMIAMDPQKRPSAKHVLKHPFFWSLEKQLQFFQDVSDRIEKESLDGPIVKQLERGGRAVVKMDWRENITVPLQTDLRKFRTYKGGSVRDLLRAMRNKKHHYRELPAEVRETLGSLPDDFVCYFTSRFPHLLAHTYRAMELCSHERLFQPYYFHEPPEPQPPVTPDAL

Row | IC50 (IRE1a [1]) [nM] | EC50 (IRE1a [2]) [nM] | Structure (SMILES) | other results
1 | < 5 | 100 to 10000 | N[C@H]1CC[C@@H](Nc2ncc3cc(-c4ccc(NS(=O)(=O)c5ccccc5Cl)c(F)c4)ccc3n2)C1 [Compound 80] | 
2 | < 5 | < 5 | CCc1cc(-c2ccc(NS(=O)(=O)c3ccccc3Cl)c(F)c2)cc2cnc(N[C@H]3CCCNC3)nc12 [Compound 73, (S)-2-chloro-N-(4-(8-ethyl-2-(piperidin-3-ylamino)quinazolin-6-yl)-2-fluorophenyl) benzene-sulfonamide] | 
3 | 5 to 50 | < 5 | CCc1cc(-c2ccc(NS(=O)(=O)c3ccccc3Cl)c(F)c2)cc2cnc(N[C@H]3CC[C@H](NC(=O)[C@@H](N)C(C)C)CC3)nc12 [Compound 58, (S)-2-amino-N-((1r,4S)-4-((6-(4-((2-chlorophenyl)sulfonamido)-3-fluorophenyl)-8-ethylquinazolin-2-yl)amino)cyclohexyl)-3-methylbutanamide] | 
4 |  | < 5 | CCc1cc(-c2ccc(NS(=O)(=O)c3ccccc3Cl)nc2OC)cc2cnc(N[C@H]3CC[C@H](N)CC3)nc12 [Compound 37, N-(5-(2-(((1r,4r)-4-aminocyclohexyl)amino)-8-ethylquinazolin-6-yl)-6-methoxypyridin-2-yl)-2-chlorobenzene-sulfonamide] | % Growth at 0.5556 uM (293T cells): D (D: > 75% to ≤ 100%); % Growth at 1.667 uM (293T cells): C (C: > 50% to ≤ 75%); % Growth at 5 uM (293T cells): B (B: > 25% to ≤ 50%)
5 | < 5 | < 5 | CCc1cc(-c2ccc(NS(=O)(=O)c3ccccc3Cl)nc2C)cc2cnc(N[C@H]3CC[C@H](N(C)C)CC3)nc12 [Compound 91, 2-chloro-N-(5-(2-(((1r,4r)-4-(dimethylamino)cyclohexyl)amino)-8-ethylquinazolin-6-yl)-6-methylpyridin-2-yl)benzenesulfonamide] | 
6 | < 5 | < 5 | CCc1cc(-c2ccc(NS(=O)(=O)c3ccccc3Cl)c(F)c2)cc2cnc(N[C@@H]3CC[C@H](N)[C@H](C)C3)nc12 [Compound 70, N-(4-(2-(((1R,3R,4S)-4-amino-3-methylcyclohexyl)amino)-8-ethylquinazolin-6-yl)-2-fluorophenyl)-2-chlorobenzene-sulfonamide] | 
7 |  |  | CCc1cc(-c2ccc(NS(=O)(=O)c3ccccc3Cl)nc2OC)cc2cnc(NC3CCC(N(C)C)CC3)nc12 (stereo not drawn) [Compound D] | suppression of IRE1a-mediated XBP1 splicing in pancreas and salivary gland [3]: potently suppressed; metabolic fate [4]: removal of the methyl groups
8 |  | < 5 | CCc1cc(-c2ccc(NS(=O)(=O)c3ccccc3Cl)c(F)c2)cc2cnc(N[C@@H]3CC[C@@H](N)[C@H](C)C3)nc12 [Compound 74] | 
9 |  |  | CCc1cc(-c2ccc(NS(=O)(=O)c3ccccc3Cl)nc2C)cc2cnc(N[C@H]3CC[C@H](N)CC3)nc12 [Compound A, N-(5-(2-(((1r,4r)-4-aminocyclohexyl)amino)-8-ethylquinazolin-6-yl)-6-methylpyridin-2-yl)-2-chlorobenzenesulfonamide] | oral bioavailability [5]: 4%
10 |  | < 5 | CCc1cc(-c2cnc(NS(=O)(=O)c3ccccc3Cl)c(F)c2)cc2cnc(N[C@H]3CC[C@H](N(C)C)CC3)nc12 [Compound 95, 2-chloro-N-(5-(2-(((1r,4r)-4-(dimethylamino)cyclohexyl)amino)-8-ethylquinazolin-6-yl)-3-fluoropyridin-2-yl)benzenesulfonamide] | 
11 |  | < 5 | CCc1cc(-c2cc(F)c(NS(=O)(=O)c3ccccc3Cl)nc2OC)cc2cnc(N[C@H]3CC[C@H](N(C)C)CC3)nc12 [Compound 128, 2-chloro-N-(5-(2-(((1r,4r)-4-(dimethylamino)cyclohexyl)amino)-8-ethylquinazolin-6-yl)-3-fluoro-6-methoxypyridin-2-yl)benzenesulfonamide] | 
12 |  | < 5 | COc1nc(NS(=O)(=O)c2ccccc2Cl)c(F)cc1-c1cc(C)c2nc(N[C@H]3CC[C@H](N(C)C)CC3)ncc2c1 [Compound 145, 2-chloro-N-(5-(2-(((1r,4r)-4-(dimethylamino)cyclohexyl)amino)-8-methylquinazolin-6-yl)-3-fluoro-6-methoxypyridin-2-yl)benzenesulfonamide] | 
13 |  | 100 to 10000 | N[C@H]1CC2C[C@@H](Nc3ncc4cc(-c5ccc(NS(=O)(=O)c6ccccc6Cl)c(F)c5)ccc4n3)CC2C1 (stereo partly drawn) [Compound 85, N-(4-(2-(((2s,5s)-5-aminoocta-hydropentalen-2-yl)amino)quinazolin-6-yl)-2-fluorophenyl)-2-chlorobenzene-sulfonamide] | 
14 |  | 100 to 10000 | CCc1cc(-c2cnc(NS(=O)(=O)c3ccccc3Cl)cc2OC)cc2cnc(N[C@H]3CC[C@H](N)CC3)nc12 [Compound 92, N-(5-(2-(((1r,4r)-4-aminocyclohexyl)amino)-8-ethylquinazolin-6-yl)-4-methoxypyridin-2-yl)-2-chlorobenzene-sulfonamide] | 
15 |  | < 5 | CCc1cc(-c2ccc(NS(=O)(=O)c3cccc(Cl)c3Cl)nc2C)cc2cnc(N[C@H]3CC[C@H](N(C)C)CC3)nc12 [Compound 152, 2,3-dichloro-N-(5-(2-(((1r,4r)-4-(dimethylamino)cyclohexyl)amino)-8-ethylquinazolin-6-yl)-6-methylpyridin-2-yl)benzenesulfonamide] | 
16 |  |  | CCc1cc(-c2ccc(NS(=O)(=O)c3ccccc3Cl)nc2C)cc2cnc(NC3CCC(N(C)C)CC3)nc12 (stereo not drawn) [Compound C] | suppression of IRE1a-mediated XBP1 splicing in pancreas and salivary gland [3]: potently suppressed; shift in potency between Compound A and Compound C (IRE1a/XBP1 pathway): approximately 3.6 ×; metabolic fate [4]: removal of the methyl groups; concentration sufficient to reduce XBP1s protein levels below the limit of detection (IRE1a [6]): 20 nM; ER stress-induced IRE1a phosphorylation (IRE1a [6]; pre-incubation with compound): strongly repressed; accumulation of XBP1s protein (IRE1a [6]; pre-incubation with compound): completely abrogated
17 |  | 5 to 50 | Cc1nc(NS(=O)(=O)c2ccccc2Cl)c(F)cc1-c1ccc2nc(N[C@H]3CC[C@H](N(C)C)CC3)ncc2c1 [Compound 153, 2-chloro-N-(5-(2-(((1r,4r)-4-(dimethylamino)cyclohexyl)amino)quinazolin-6-yl)-3-fluoro-6-methylpyridin-2-yl)benzenesulfonamide] | 
18 |  | 5 to 50 | N[C@H]1CC[C@H](Nc2ncc3cc(-c4ccc(NS(=O)(=O)c5ccccc5Cl)cc4F)ccc3n2)CC1 [Compound 48, N-(4-(2-(((1r,4r)-4-aminocyclohexyl)amino)quinazolin-6-yl)-3-fluorophenyl)-2-chlorobenzene-sulfonamide] | 
19 |  | 5 to 50 | O=S(=O)(Nc1ccc(-c2ccc3nc(N[C@H]4CCCNC4)ncc3c2)cc1F)c1ccccc1Cl [Compound 76, (S)-2-chloro-N-(2-fluoro-4-(2-(piperidin-3-ylamino)quinazolin-6-yl)phenyl) benzene-sulfonamide] | 

Row | Structure (SMILES) | IC50 (IRE1a [1]) [nM] | EC50 (IRE1a [2]) [nM] | other results
20 | CCc1cc(-c2cnc(NS(=O)(=O)c3ccccc3Cl)cn2)cc2cnc(N[C@H]3CC[C@H](N)CC3)nc12 [Compound 25, N-(5-(2-(((1r,4r)-4-aminocyclohexyl)amino)-8-ethylquinazolin-6-yl)pyrazin-2-yl)-2-chlorobenzene-sulfonamide] | < 5 | < 5 | % Growth at 0.185 uM (293T cells; 0.185 uM): D (D: > 75% to ≤ 100%); % Growth at 0.5556 uM (293T cells): D (D: > 75% to ≤ 100%); % Growth at 1.667 uM (293T cells): D (D: > 75% to ≤ 100%); % Growth at 5 uM (293T cells): D (D: > 75% to ≤ 100%)

— patent US12479818B2, “Treatment of fibrosis with IRE1 small molecule inhibitors” (Cornell University, priority 2019, dated 2025)
